Reference: PubChem BioAssay (NCI)
Where “and” joins values, the source holds several entries; their conditions need not be identical. Identical values can stand only once.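 Protocol summary: plate cells (96-well), add compound at 5 concentrations, incubate 48 h, interpolate endpoints linearly. The concentration for 50% growth inhibition is given as GI50. The concentration for full growth arrest is given as TGI.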

Tests used:
Assay in all cases: DTP human tumour cell line panel, 48 h
[1] = test system: LXFL 529 NSCLC
[2] = test system: KM20L2 colon
[3] = test system: RXF-631 renal
[4] = test system: DMS 114 small cell lung
[5] = test system: M19-MEL melanoma
[6] = test system: XF 498 CNS
[7] = test system: DLD-1 colon
[8] = test system: HOP-18 NSCLC
[9] = test system: DMS 273 small cell lung
[10] = test system: SNB-78 CNS

| Compound | TGI [1] | TGI [2] | TGI [3] | TGI [4] | TGI [5] | TGI [6] | TGI [7] | TGI [8] | TGI [9] | TGI [10] | GI50 [1] | GI50 [2] | GI50 [10] | GI50 [4] | GI50 [5] |
| --- | --- | --- | --- | --- | --- | --- | --- | --- | --- | --- | --- | --- | --- | --- | --- |
| Cc1nc2sccn2c1C(=O)NN | > 100 µM | > 100 µM | > 100 µM | > 100 µM | > 100 µM | > 100 µM | > 100 µM | > 100 µM | > 100 µM | – | – | – | – | – | – |
| OC12c3ccccc3C1CCCCC2N1CCCC1 (configuration not stated) | > 100 µM | > 100 µM | – | > 100 µM | > 100 µM | – | – | > 100 µM | > 100 µM | > 100 µM | – | – | – | – | – |
| CSc1nc(-c2ccc(Cl)cc2)c(C#N)c(=O)n1C1OC(COC(C)=O)C(OC(C)=O)C(OC(C)=O)C1OC(C)=O (configuration not stated) | > 100 µM | > 100 µM | – | > 100 µM | > 100 µM | > 100 µM | > 100 µM | > 100 µM | > 100 µM | 39.6 µM and > 100 µM | 26 µM and > 100 µM | 35 µM and > 100 µM | 12.4 µM and > 100 µM | 24.6 µM and > 100 µM | 34.3 µM and > 100 µM |
| COc1cc2cc(OC(C)=O)c3cc4c(cc3c2c(OC)c1OC)OCO4 | > 100 µM | > 100 µM | > 100 µM | > 100 µM | > 100 µM | > 100 µM | > 100 µM | > 100 µM | > 100 µM | > 100 µM | – | – | – | – | – |
| COc1ccc(CNc2cnc3cc(N)ccc3n2)cc1 | > 100 µM | > 100 µM | – | > 100 µM | > 100 µM | > 100 µM | – | – | > 100 µM | > 100 µM | – | – | – | – | – |
| COc1cc(/C=C2\C(=O)N(C(=O)Cc3ccccc3)N=C2C)cc(OC)c1OC | – | – | – | > 100 µM | > 100 µM | > 100 µM | > 100 µM | > 100 µM | > 100 µM | > 100 µM | – | – | – | – | – |
| CC(C)(O)C(O)COc1c2c(cc3oc(=O)ccc13)OCO2 (configuration not stated) | > 100 µM | > 100 µM | – | > 100 µM | > 100 µM | > 100 µM | > 100 µM | > 100 µM | > 100 µM | – | – | – | – | – | – |
| COc1cc(C2C(Cl)C(=O)N2NC(=O)Cc2ccccc2)cc(Br)c1O (configuration not stated) | > 100 µM | > 100 µM | – | > 100 µM | > 100 µM | > 100 µM | > 100 µM | > 100 µM | > 100 µM | > 100 µM | – | – | – | – | – |
| C=C(C)C12CC3CC(/C(=N/O)C(C1)/C3=N\O)[C@@]2(C)O (some centres not stated) | > 100 µM | > 100 µM | – | > 100 µM | > 100 µM | – | > 100 µM | – | > 100 µM | > 100 µM | – | – | – | – | – |
| COc1cccc2c1c1ccc3c(c1n2C)C(=O)C=CC3=O | 24.4 µM | > 100 µM | – | 43.4 µM | 2.52 µM | 29.4 µM | 31.2 µM | 29 µM | 32.2 µM | 42.5 µM | – | – | – | – | – |
